Source: patent US7618697B2, “Carboxylic acid esters of zosteric acid for prevention of biofouling” (Ciba Specialty Chemicals Corporation, priority 2005, dated 2009)

tested on: Staphyloccus aureus; assay: Microbial antiadhesion assay on coated PMMA test pins; type: cell-based; settings: adhering microbes as percent of control pins (acrylate film former only = 100%), test concentration 0.50% in Glascol LS26 acrylate film former, 60 min in S. aureus suspension, immunological detection
Method: Microbial Antiadhesion Assay
According to the method of Nature Medicine Vol. 6, No. 8, 1053-1056, Zosterate esters are dissolved in a solution containing an acrylate polymeric film former (Glascol LS26, 4.6% active). Test pins made of PMMA are dipped into the solutions, incubated for 20 minutes and allowed to dry. The test pins are incubated in a suspension of Staphyloccus aureus for 60 min, then rinsed with PBS buffer. The microbial cells adhering to the pin are detected in an immunological assay using specific antibodies against the test strain which are then detected […]. The results are reported as a percent relative to the control pins (treated with acrylate film former only), a value of 100% represents the value observed on the control pins; a value of 42% represents a 0.42× the amount of microbes found on the pins treated with acrylate film former only.

Row | SMILES | Results on PMMA Based on Control [%]
1 | COC(=O)/C=C/c1ccc(OS(=O)(=O)O)cc1 [Methyl zosterate, Methyl Zosterate] | 28
2 | CCC(C)OC(=O)/C=C/c1ccc(OS(=O)(=O)O)cc1 (stereo not drawn) [2-Butyl zosterate] | 42
3 | CCCCOC(=O)/C=C/c1ccc(OS(=O)(=O)O)cc1 [1-Butyl zosterate] | 70
